Laboratory results taken from patent publication US20110230472A1, “RING-FUSED AZOLE DERIVATIVE HAVING PI3K-INHIBITING ACTIVITY” (Shionogi & Co., Ltd., priority 2008, published 2011).

Tests used:
[1] = target: T1, PI-3 kinase γ (Homo sapiens, UniProt P48736); test: PI3Kγ inhibitory activity, PI3-kinase HTRF assay (inhibition ratio); format: biochemical; details: 0.5 h; for inhibition at 50 µM: compound at 50 μM
Procedure, shortened: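 Single-concentration inhibition ratio (50 or 10 μmol/L compound) versus no-compound (100%) and no-enzyme (0%) wells. Reaction: PI-3 kinase γ, PIP2, ATP, MgCl2/DTT, 30 min at RT after 10 min preincubation. Read-out: HTRF 665/620 nm after 18 h detection.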

[2] = target: T1, PI-3 kinase γ; test: PI3Kγ inhibitory activity (Ki value), HTRF; format: biochemical; details: Ki=IC50/(1+10 μM ATP/Km)
Method: The PI3Kγ inhibitory activity (Ki value) of a compound was evaluated according to the following procedure:
5 μL of a compound solution containing 10% DMSO and 200 μmol/L of a compound was changed to 5 μL of a compound solution containing 10% DMSO and either 200, 64, 20, 6.4, 2, 0.64, or 0.20 μmol/L of the compound (optionally, this is diluted to a lower concentration). Using a method similar to the method for measuring PI3Kγ inhibitory activity, inhibition ratios were measured in the presence of the compound at 50, 16, 5, 1.6, 0.5, 0.16, and 0.05 μmol/L (optionally, a lower concentration). Then an IC50 value was calculated by a logistic approximation method or the linear regression method using two concentrations that across 50% inhibition. Separately, the ATP concentration in the reaction solution (40 μmol/L ATP, 10 mmol/L MgCl2, 5 mmol/L DTT) at the time of the start of a reaction in the absence of the compound was changed to 80, 40, 20, 10, 5, 2.5, 1.25, or 0.625 μmol/L. Then, HTRF ratios were measured by a similar method. The value obtained by subtracting the HTRF ratio at each ATP concentration from the HTRF ratio in the absence of PI-3 kinase γ was defined as the value obtained by multiplying reaction rate (v) at each ATP concentration with a constant. The Michaelis-Menten constant Km was then calculated by the Lineweaver-Burk plot method. The Ki value of a compound was calculated by the following formula.
Ki=IC50 value/(1+10 μM (test ATP concentration)/Km (μM))

[3] = test system: AKT phosphorylation in human monocyte-like cell line THP-1; test: AKT phosphorylation inhibitory activity in MCP-1-stimulated THP-1 cells (ELISA); format: cell-based; details: 1 μmol/L solution of each compound, MCP-1 stimulation, read-out: AKT phosphorylation inhibition ratio
Method: (1) The AKT phosphorylation inhibitory activity of a compound was evaluated according to the following procedure. (2) Human monocyte-like cell line THP-1 was washed with RPMI-1640 media, incubated in the presence of 5% CO2 at 37° C. for 3 hours, washed with Hank's balanced salt solution (HBSS), adjusted to a cell concentration of 6.6×10^6/mL, and then used in an experiment. (3) 30 μL of the cell suspension and 60 μL of each compound solution containing 0.2% DMSO/HBSS were mixed and then preincubated at 37° C. for 5 minutes. 30 μL of HBSS containing 4 μg/mL of MCP-1 was added thereto and then incubated for 30 seconds at 37° C. (4) 30 μl of a cell lysate (20 mmol/L Tris-HCl (pH 7.5), 150 mmol/L NaCl, 1 mmol/L Na2EDTA, 1 mmol/L EGTA, 1% Triton, 2.5 mmol/L sodium pyrophosphate, 1 mmol/L β-glycerophosphate, 1 mmol/L Na3VO4, 1 μg/ml leupeptin, 50 nmol/L APMSF) was added thereto to lyse cells. (5) The amount of AKT phosphorylation in the cell lysate was measured by ELISA method. (6) Anti-phospho-Akt (Ser473) antibodies (clone 193H12, derived from a rabbit) were immobilized onto the solid phase of a micro well plate. 100 μL of the prepared cell lysate was added to the micro well plate, incubated for 2 hours at 37° C., and then washed four times with Phosphate Buffered Saline containing 0.05% Tween-20. (7) An anti-AKT1 antibody (clone 2H10, derived from a mouse) was added thereto, incubated for 1 hour at 37° C., washed similarly, and then reacted with an HRP-labeled anti-mouse IgG antibody. (8) After incubating at 37° C. for 30 minutes and then washing similarly, 100 μL of TMB (3,3′,5,5″-tetramethylbenzidine) was added thereto, followed by reacting at room temperature for 30 minutes. (9) 100 μL of 1 mol/L sulfuric acid was added to quench the color reaction and then the absorbance at 450 nm was measured. (10) A series of diluted cell lysates of a positive control (a sample in the absence of a compound) were used to prepare a calibration curve, the amount of AKT phosphorylation in a sample in the absence of MCP-1 was defined as 0% activity to calculate an inhibition ratio. The measurement was performed for a 1 μmol/L solution of each compound.

[4] = Solubility test; format: physicochemical; details: kinetic from dmso stock; artificial intestinal juice pH 6.8, 1% DMSO, 25° C. for 16 hours
Method: The solubility of a compound was determined under a condition in which 1% DMSO was added. 10 mmol/L compound solution was prepared using DMSO, and then 6 μL of the compound solution was added to 594 μL of artificial intestinal juice in pH 6.8 (to 250 mL of 0.2 mol/L potassium dihydrogen phosphate reagent solution was added 118 mL of 0.2 mol/L NaOH reagent solution and water to provide a final volume of 1000 mL). After standing at 25° C. for 16 hours, the mixed solution was filtered with suction. The filtrate was diluted twice with methanol/water (1/1), and then a concentration in the filtration was measured with HPLC or LC/MS/MS by the absolute calibration method.

[5] = Metabolic stability test; format: in vitro ADME; details: human liver microsome 0.5 mg protein/mL, 1 mmol/L NADPH, 37° C.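 Also: 100% equals the compound amount at 0 min reaction.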
Method: After a subject compound was reacted for a certain time using a pooled human liver microsome commercially available, a reacted sample and an unreacted sample are compared to calculate a survival ratio, and then the degree of metabolism in the liver was evaluated.
0.2 mL of a buffer solution (50 mmol/L of Tris-HCl in pH 7.4, 150 mmol/L of potassium chloride, and 10 mmol/L of magnesium chloride) containing a human liver microsome of 0.5 mg protein/mL was reacted in the presence of 1 mmol/L NADPH at 37° C. for 0 or 30 minutes (oxidative reaction). After reacting, 50 μL of the reaction solution was added to 100 μL of a solution of methanol/acetonitrile (1/1 (v/v)), mixed, and then centrifuged at 3000 rpm for 15 minutes. The test compound in the supernatant was quantitated with LC/MS/MS. The amount of the compound at a reaction time of 0 minute was defined as 100% and, based on that, the percentage of the test compound remained after reacting for 30 minutes was calculated.

[6] = target: T2, human ether-a-go-go related gene (hERG) channel (Homo sapiens, UniProt Q12809); test: hERG test, whole-cell patch-clamp; format: cell-based; details: HEK293 cell expressing hERG; applied for 10 minutes; concentration not given
T2 construct: expressed in transfected cells; host or cells: HEK293
Description: For the purpose of risk evaluation of QT interval extension of electrocardiogram, the activity on delayed rectification K^+ current (IKr), which plays an important role in a cardiac ventricle repolarization process, was examined using the HEK293 cell that was made to express human ether-a-go-go related gene (hERG) channel.
Using an automatic patch-clamp system (PatchXpress 7000A, Axon Instruments Inc.), by a whole-cell patch-clamp method, after the cell was maintained at a membrane potential of −80 mV, IKr induced upon applying depolarizing stimulation of +50 mV for 2 seconds and further applying repolarizing stimulation of −50 mV for 2 seconds was recorded. After generated electric current became stable, a test substance dissolved at an intended concentration in extracellular fluid (137 mmol/L NaCl, 4 mmol/L KCl, 1.8 mmol/L CaCl2.2H2O, 1 mmol/L MgCl2.6H2O, 10 mmol/L glucose, 10 mmol/L HEPES (4-(2-hydroxyethyl)-1-piperazineethanesulfonic acid), pH=7.4) was applied to the cell for 10 minutes under room temperature condition. From the obtained IKr, the absolute value of the maximum tail current was measured using analysis software (DataXpress ver. 1, Molecular Devices Corporation) and the value of the electric current in a maintained membrane potential as baseline. Moreover, an inhibition ratio for the maximum tail current prior to the application of the test substance was calculated and then compared with a group of media-application (0.1% dimethylsulfoxide solution) to evaluate influence of the test substance on IKr.

T1 sequence (P48736 whole entry): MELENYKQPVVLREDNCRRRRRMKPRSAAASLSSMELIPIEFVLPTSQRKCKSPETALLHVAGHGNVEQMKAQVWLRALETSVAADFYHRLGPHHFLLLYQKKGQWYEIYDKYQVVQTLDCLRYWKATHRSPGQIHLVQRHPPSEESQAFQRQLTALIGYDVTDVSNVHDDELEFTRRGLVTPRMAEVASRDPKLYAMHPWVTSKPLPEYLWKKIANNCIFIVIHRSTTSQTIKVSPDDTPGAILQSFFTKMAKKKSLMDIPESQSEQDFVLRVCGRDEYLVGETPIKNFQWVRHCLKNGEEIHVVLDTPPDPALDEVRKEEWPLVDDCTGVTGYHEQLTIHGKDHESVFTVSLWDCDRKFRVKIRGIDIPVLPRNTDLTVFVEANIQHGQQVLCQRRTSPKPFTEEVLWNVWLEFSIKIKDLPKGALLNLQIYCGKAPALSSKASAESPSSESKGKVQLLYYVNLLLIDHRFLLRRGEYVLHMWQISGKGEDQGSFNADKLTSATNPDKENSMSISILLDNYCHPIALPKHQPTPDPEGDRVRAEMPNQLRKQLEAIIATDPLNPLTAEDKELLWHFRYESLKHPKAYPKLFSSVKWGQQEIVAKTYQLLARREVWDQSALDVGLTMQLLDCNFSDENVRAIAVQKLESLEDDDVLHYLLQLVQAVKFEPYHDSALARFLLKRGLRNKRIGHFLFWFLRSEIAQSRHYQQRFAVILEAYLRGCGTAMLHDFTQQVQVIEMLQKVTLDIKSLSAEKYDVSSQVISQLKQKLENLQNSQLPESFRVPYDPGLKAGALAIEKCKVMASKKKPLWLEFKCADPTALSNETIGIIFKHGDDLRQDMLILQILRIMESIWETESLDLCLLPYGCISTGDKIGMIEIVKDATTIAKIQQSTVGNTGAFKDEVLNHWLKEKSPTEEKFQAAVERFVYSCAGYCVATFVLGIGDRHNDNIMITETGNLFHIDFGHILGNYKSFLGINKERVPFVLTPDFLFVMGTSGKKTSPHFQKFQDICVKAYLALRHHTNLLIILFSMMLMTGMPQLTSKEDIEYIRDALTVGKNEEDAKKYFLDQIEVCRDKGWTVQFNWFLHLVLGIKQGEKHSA
T2 sequence (Q12809 whole entry): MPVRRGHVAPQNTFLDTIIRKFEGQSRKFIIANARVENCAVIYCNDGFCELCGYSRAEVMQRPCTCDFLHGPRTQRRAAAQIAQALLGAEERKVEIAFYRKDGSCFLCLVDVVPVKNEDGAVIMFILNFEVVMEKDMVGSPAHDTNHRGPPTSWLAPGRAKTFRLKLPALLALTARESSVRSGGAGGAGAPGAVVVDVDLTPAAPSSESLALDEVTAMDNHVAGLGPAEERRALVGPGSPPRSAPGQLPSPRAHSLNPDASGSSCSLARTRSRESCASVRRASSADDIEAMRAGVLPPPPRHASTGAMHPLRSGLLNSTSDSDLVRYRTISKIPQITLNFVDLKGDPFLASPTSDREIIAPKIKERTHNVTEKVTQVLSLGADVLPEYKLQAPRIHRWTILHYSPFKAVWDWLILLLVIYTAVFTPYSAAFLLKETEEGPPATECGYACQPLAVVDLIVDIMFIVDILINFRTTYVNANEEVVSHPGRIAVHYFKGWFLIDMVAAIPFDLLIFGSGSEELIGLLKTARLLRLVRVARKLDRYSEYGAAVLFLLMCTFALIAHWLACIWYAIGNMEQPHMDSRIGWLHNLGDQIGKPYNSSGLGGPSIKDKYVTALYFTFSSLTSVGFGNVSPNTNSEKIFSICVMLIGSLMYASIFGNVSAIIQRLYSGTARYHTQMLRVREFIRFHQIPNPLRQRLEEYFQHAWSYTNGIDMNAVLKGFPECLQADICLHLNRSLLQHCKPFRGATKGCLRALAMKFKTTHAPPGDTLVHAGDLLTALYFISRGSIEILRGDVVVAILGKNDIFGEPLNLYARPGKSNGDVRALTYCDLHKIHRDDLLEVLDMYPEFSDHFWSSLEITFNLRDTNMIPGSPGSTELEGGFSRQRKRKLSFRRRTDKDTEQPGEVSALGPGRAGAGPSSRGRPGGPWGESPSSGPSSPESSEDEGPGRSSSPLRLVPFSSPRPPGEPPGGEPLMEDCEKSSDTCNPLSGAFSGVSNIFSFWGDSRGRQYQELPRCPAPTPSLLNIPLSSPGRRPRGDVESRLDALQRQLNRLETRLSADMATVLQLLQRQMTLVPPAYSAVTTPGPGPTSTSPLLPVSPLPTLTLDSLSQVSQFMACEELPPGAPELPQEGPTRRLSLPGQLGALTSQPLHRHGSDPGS

Compound	inhibition at 10 µM ([1]; compound at 10 μmol/L) [%]	Ki [2] [nM]	inhibition at 10 µM ([1]; PI3Kγ, compound at 10 μM) [%]	inhibition [3] [%]	inhibition at 50 µM ([1]; PI3Kγ) [%]	solubility at 16 h [4] [µM]	percentage of the test compound remained after reacting for 30 minutes [5] [%]	inhibition ratio for the maximum tail current (IKr) [6] [%]
CC(=O)Nc1cc2n(n1)CCN2c1ccc2c(c1)CCNC2=O [Compound I-292]	≥ 95	43						
CN1CCc2cc(N3CCn4nc(NC(=O)c5ccc(C(=O)NCC(=O)O)s5)cc43)ccc2C1=O [Compound I-415]	≥ 95	34						
COc1cc(N2CCc3nc(NC(=O)NCCC(=O)NC(C)(C)C)sc3C2)nc(OC)n1 [Compound I-265]		42	≥ 95	> 99.5				
CN1CCc2cc(N3CCn4nc(NC(=O)c5cnc(N)s5)cc43)ccc2C1=O [Compound I-380]	≥ 95	32						
COC(=O)[C@H](CC(=O)OC(C)(C)C)NC(=O)Nc1nc2c(s1)CN(c1cc(OC)nc(OC)n1)CC2 [Compound I-277]		36	≥ 95					
CN1CCc2cc(N3CCn4nc(NC(=O)c5cnc(NC(=O)OC(C)(C)C)s5)cc43)ccc2C1=O [Compound I-375]	≥ 95	23						
CC(=O)Nc1cc2n(n1)CCN2c1ccc2cnccc2c1 [Compound I-284]		40	≥ 95	> 99.5				
CCOC(=O)CNC(=O)Nc1nc2c(s1)CN(c1cc(OC)nc(OC)n1)CC2 [Compound I-202]		49		> 99.5	≥ 95			
COc1cc(N2CCc3nc(NC(=O)NCCC(=O)N4CCCC4(C)C)sc3C2)nc(OC)n1 [Compound I-318]	≥ 95	45		> 99.5		> 50		
COC(=O)Nc1cc[nH]c1C(=O)Nc1cc2n(n1)CCN2c1ccc2c(c1)CCN(C)C2=O [Compound I-398]	≥ 95	49						
CN1CCc2cc(N3CCn4nc(NC(=O)c5cnco5)cc43)ccc2C1=O [Compound I-348]	≥ 95			> 99.5		> 50	94.5	
COc1cc(N2CCc3nc(NC(=O)NCCC(=O)N(C)C(C)C)sc3C2)nc(OC)n1 [Compound I-310]	≥ 95	43		> 99.5				
COc1cc(N2CCc3nc(NC(=O)NCCC(=O)NC(C)C)sc3C2)nc(OC)n1 [Compound I-309]	≥ 95			92		> 50	93.1	
CC(=O)Nc1cc2n(n1)CCN2c1ccc2c(c1)CCN(C)C2=O [Compound I-287]			≥ 95	> 99.5		> 50	94.9	
CC(=O)Nc1nc2c(s1)CN(c1ccccc1)CC2 [Compound I-230]					81	> 50	87.9	9.1
COc1cc(N2CCc3nc(NC(C)=O)sc3C2)nc(OC)n1 [Compound I-214]				> 99.5	≥ 95		98.9	
COc1cc(N2CCc3nc(NC(=O)Nc4ccon4)sc3C2)nc(OC)n1 [Compound I-303]	94	45					87.3	
CNC(=O)Nc1cc2n(n1)CCN2c1ccc(C(N)=O)cc1 [Compound I-160]					≥ 95			−0.4
